# Laboratory results reported in PubChem BioAssay (NCI).
#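 Assay format: 96-well plates, 48-hour exposure. The concentration for 50% growth inhibition is given as GI50. TGI is the concentration that stops growth completely.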
# Experiments:
# Test in all cases: NCI tumour cell line growth inhibition, 48 h
# DU-145 prostate = system: DU-145 prostate
# A498 renal = system: A498 renal
# KM12 colon = system: KM12 colon
# MDA-MB-231 breast = system: MDA-MB-231 breast
# HCT-15 colon = system: HCT-15 colon
# MOLT-4 leukemia = system: MOLT-4 leukemia
# SR leukemia = system: SR leukemia
# HCT-116 colon = system: HCT-116 colon
# OVCAR-8 ovarian = system: OVCAR-8 ovarian
# SK-MEL-2 melanoma = system: SK-MEL-2 melanoma
# SK-MEL-28 melanoma = system: SK-MEL-28 melanoma
# HCC-2998 colon = system: HCC-2998 colon
# M14 melanoma = system: M14 melanoma
# LOX IMVI melanoma = system: LOX IMVI melanoma
# MCF7 breast = system: MCF7 breast
# RPMI-8226 leukemia = system: RPMI-8226 leukemia
# ACHN renal = system: ACHN renal
# NCI-H460 lung = system: NCI-H460 lung
# RXF 393 renal = system: RXF 393 renal
# SF-295 CNS = system: SF-295 CNS
# HOP-92 NSCLC = system: HOP-92 NSCLC
# EKVX NSCLC = system: EKVX NSCLC
# SW-620 colon = system: SW-620 colon
# K-562 leukemia = system: K-562 leukemia
# OVCAR-3 ovarian = system: OVCAR-3 ovarian
# NCI-H226 lung = system: NCI-H226 lung
# OVCAR-5 ovarian = system: OVCAR-5 ovarian
# HL-60(TB) leukemia = system: HL-60(TB) leukemia
# SK-MEL-5 melanoma = system: SK-MEL-5 melanoma
# A549 NSCLC = system: A549 NSCLC
# SF-539 CNS = system: SF-539 CNS
# IGROV1 ovarian = system: IGROV1 ovarian
# SNB-75 CNS = system: SNB-75 CNS
# OVCAR-4 ovarian = system: OVCAR-4 ovarian
# CAKI-1 renal = system: CAKI-1 renal
# CCRF-CEM leukemia = system: CCRF-CEM leukemia
# 786-0 renal = system: 786-0 renal
# SK-OV-3 ovarian = system: SK-OV-3 ovarian
# SN12C renal = system: SN12C renal
# BT-549 breast = system: BT-549 breast
# COLO 205 colon = system: COLO 205 colon
# PC-3 prostate = system: PC-3 prostate
# SNB-19 CNS = system: SNB-19 CNS
# UACC-62 melanoma = system: UACC-62 melanoma
# T-47D breast = system: T-47D breast
# HOP-62 NSCLC = system: HOP-62 NSCLC
# HS 578T breast = system: HS 578T breast
# HT29 colon = system: HT29 colon
# UACC-257 melanoma = system: UACC-257 melanoma
# NCI/ADR-RES ovarian = system: NCI/ADR-RES ovarian
# U251 CNS = system: U251 CNS
# UO-31 renal = system: UO-31 renal
# TK-10 renal = system: TK-10 renal
# NCI-H23 lung = system: NCI-H23 lung
# SF-268 CNS = system: SF-268 CNS
# MDA-MB-435 = system: MDA-MB-435
# NCI-H522 lung = system: NCI-H522 lung
smiles,measurement,setting,value
CC(=O)O[C@H]1C(=O)[C@@]2(C)[C@H]([C@H](OC(=O)c3ccccc3)[C@]3(O)C[C@H](OC(=O)[C@H](OC(=O)OC[C@@H]4COC(C)(C)O4)[C@@H](NC(=O)c4ccccc4)c4ccccc4)C(C)=C1C3(C)C)[C@]1(OC(C)=O)CO[C@@H]1C[C@@H]2O,GI50,DU-145 prostate,42.4 nM
same,TGI,DU-145 prostate,> 33300 nM
same,GI50,A498 renal,79.9 nM
same,TGI,A498 renal,758 nM
same,GI50,KM12 colon,19.6 nM
same,TGI,KM12 colon,> 33300 nM
same,GI50,MDA-MB-231 breast,143 nM
same,TGI,MDA-MB-231 breast,> 7260 nM
same,GI50,HCT-15 colon,552 nM
same,TGI,HCT-15 colon,> 33300 nM
same,GI50,MOLT-4 leukemia,57.1 nM
same,TGI,MOLT-4 leukemia,> 33300 nM
same,GI50,SR leukemia,31.2 nM
same,TGI,SR leukemia,> 33300 nM
same,GI50,HCT-116 colon,11.2 nM
same,TGI,HCT-116 colon,> 33300 nM
same,GI50,OVCAR-8 ovarian,85.7 nM
same,TGI,OVCAR-8 ovarian,> 33300 nM
same,GI50,SK-MEL-2 melanoma,175 nM
same,TGI,SK-MEL-2 melanoma,> 33300 nM
same,GI50,SK-MEL-28 melanoma,> 33300 nM
same,TGI,SK-MEL-28 melanoma,> 33300 nM
same,GI50,HCC-2998 colon,96.9 nM
same,TGI,HCC-2998 colon,> 33300 nM
same,GI50,M14 melanoma,26.8 nM
same,TGI,M14 melanoma,233 nM
same,GI50,LOX IMVI melanoma,18.8 nM
same,TGI,LOX IMVI melanoma,> 33300 nM
same,GI50,MCF7 breast,9.71 nM
same,TGI,MCF7 breast,> 33300 nM
same,GI50,RPMI-8226 leukemia,9.35 nM
same,TGI,RPMI-8226 leukemia,> 33300 nM
same,GI50,ACHN renal,1040 nM
same,TGI,ACHN renal,> 33300 nM
same,GI50,NCI-H460 lung,7.74 nM
same,TGI,NCI-H460 lung,> 33300 nM
same,GI50,RXF 393 renal,45.4 nM
same,TGI,RXF 393 renal,279 nM
same,GI50,SF-295 CNS,59.8 nM
same,TGI,SF-295 CNS,574 nM
same,GI50,HOP-92 NSCLC,53.2 nM
same,TGI,HOP-92 NSCLC,> 33300 nM
same,GI50,EKVX NSCLC,190 nM
same,TGI,EKVX NSCLC,> 33300 nM
same,GI50,SW-620 colon,21.3 nM
same,TGI,SW-620 colon,> 33300 nM
same,GI50,K-562 leukemia,17.6 nM
same,TGI,K-562 leukemia,> 33300 nM
same,GI50,OVCAR-3 ovarian,18.3 nM
same,GI50,NCI-H226 lung,506 nM
same,TGI,NCI-H226 lung,> 33300 nM
same,GI50,OVCAR-5 ovarian,60.3 nM
same,TGI,OVCAR-5 ovarian,> 33300 nM
same,GI50,HL-60(TB) leukemia,24.1 nM
same,TGI,HL-60(TB) leukemia,> 33300 nM
same,GI50,SK-MEL-5 melanoma,147 nM
same,TGI,SK-MEL-5 melanoma,> 33300 nM
same,GI50,A549 NSCLC,48.8 nM
same,TGI,A549 NSCLC,> 33300 nM
same,GI50,SF-539 CNS,71.5 nM
same,TGI,SF-539 CNS,2210 nM
same,GI50,IGROV1 ovarian,62 nM
same,TGI,IGROV1 ovarian,> 33300 nM
same,GI50,SNB-75 CNS,4.11 nM
same,TGI,SNB-75 CNS,137 nM
same,GI50,OVCAR-4 ovarian,> 33300 nM
same,TGI,OVCAR-4 ovarian,> 33300 nM
same,GI50,CAKI-1 renal,182 nM
same,TGI,CAKI-1 renal,> 33300 nM
same,GI50,CCRF-CEM leukemia,40.2 nM
same,TGI,CCRF-CEM leukemia,> 33300 nM
same,GI50,786-0 renal,327 nM
same,TGI,786-0 renal,> 33300 nM
same,GI50,SK-OV-3 ovarian,1020 nM
same,TGI,SK-OV-3 ovarian,> 33300 nM
same,GI50,SN12C renal,60 nM
same,TGI,SN12C renal,> 33300 nM
same,GI50,BT-549 breast,120 nM
same,TGI,BT-549 breast,> 33300 nM
same,GI50,COLO 205 colon,29.2 nM
same,TGI,COLO 205 colon,> 33300 nM
same,GI50,PC-3 prostate,45.1 nM
same,TGI,PC-3 prostate,> 33300 nM
same,GI50,SNB-19 CNS,92.3 nM
same,TGI,SNB-19 CNS,> 33300 nM
same,GI50,UACC-62 melanoma,58.7 nM
same,TGI,UACC-62 melanoma,> 33300 nM
same,GI50,T-47D breast,63.1 nM
same,TGI,T-47D breast,> 33300 nM
same,GI50,HOP-62 NSCLC,119 nM
same,TGI,HOP-62 NSCLC,> 33300 nM
same,GI50,HS 578T breast,25.6 nM
same,TGI,HS 578T breast,1160 nM
same,GI50,HT29 colon,10.4 nM
same,TGI,HT29 colon,> 33300 nM
same,GI50,UACC-257 melanoma,> 7380 nM
same,TGI,UACC-257 melanoma,> 33300 nM
same,GI50,NCI/ADR-RES ovarian,> 33300 nM
same,TGI,NCI/ADR-RES ovarian,> 33300 nM
same,GI50,U251 CNS,40.9 nM
same,TGI,U251 CNS,> 33300 nM
same,GI50,UO-31 renal,1790 nM
same,TGI,UO-31 renal,> 33300 nM
same,GI50,TK-10 renal,656 nM
same,TGI,TK-10 renal,> 33300 nM
same,GI50,NCI-H23 lung,72.6 nM
same,TGI,NCI-H23 lung,> 33300 nM
same,GI50,SF-268 CNS,251 nM
same,TGI,SF-268 CNS,> 33300 nM
same,GI50,MDA-MB-435,4.81 nM
same,TGI,MDA-MB-435,23.7 nM
same,GI50,NCI-H522 lung,37.5 nM
same,TGI,NCI-H522 lung,> 33300 nM
